Measurements taken from patent US11691970B2, “Pyrazolopyridinone compounds” (Janssen Pharmaceutica NV, priority 2017, dated 2023).
Like-named read-outs stand apart in the source and are kept apart here.

Assays:
[1] = target: T1, human FGFR3 wild type enzyme (cytoplasmic domain) (Homo sapiens, UniProt P22607); assay: FGFR3 wild type mobility shift assay (enzymatic assay); type: biochemical; settings: 75 μM ATP, 50 minutes at 30° C, Caliper EZ reader II
T1 construct: human FGFR3 wild type enzyme (cytoplasmic domain, from Carna Biosciences); purchased Carna Biosciences
T1 sequence (P22607 397-806 limits assumed): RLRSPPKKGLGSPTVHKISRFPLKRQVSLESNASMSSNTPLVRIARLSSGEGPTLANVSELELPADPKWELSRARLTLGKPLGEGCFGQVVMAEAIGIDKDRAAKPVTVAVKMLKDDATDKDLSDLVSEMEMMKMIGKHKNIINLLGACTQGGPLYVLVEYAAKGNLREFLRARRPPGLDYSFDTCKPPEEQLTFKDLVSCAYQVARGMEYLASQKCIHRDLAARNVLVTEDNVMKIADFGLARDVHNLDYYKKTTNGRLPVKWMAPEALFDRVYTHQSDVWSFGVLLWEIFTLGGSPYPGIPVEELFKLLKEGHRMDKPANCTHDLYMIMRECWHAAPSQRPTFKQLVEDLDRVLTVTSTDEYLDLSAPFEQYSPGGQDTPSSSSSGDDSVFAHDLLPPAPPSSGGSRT
Source text: FGFR3 Wild Type Mobility Shift Assay (Enzymatic Assay)

[2] = test system: NIH/3T3 cells overexpressing FGFR3 WT-TACC3 fusion protein; assay: NIH/3T3 FGFR3 WT-TACC3 cellular phospho-ERK assay (in vitro PD assay); type: cell-based; settings: Mus musculus, NIH3T3; 1-hr incubation, AlphaLISA SureFire Ultra p-ERK1/2 (Thr202/Tyr204); read-out: NIH/3T3 FGFR3 WT-TACC3 pERK (IC50)
Experimental: NIH/3T3 FGFR3 WT-TACC3 Cellular Phospho-ERK Assay (In Vitro PD Assay)
50 μL of cell suspension (NIH/3T3 cells overexpressing FGFR3 WT-TACC3 fusion protein) (total 10,000 cells per well in growth medium (DMEM containing 1% Glutamax, 10% FBS and 1% Pen/Strep)) was seeded in a 384-well plate. […] After 1-hr incubation at 37° C. and 5% CO2, the medium was depleted and AlphaLISA SureFire Ultra p-ERK1/2 (Thr202/Tyr204) Assay Kit (from PerkinElmer) was applied for phospho-ERK level detection according to the kit instructions.

[3] = target: T2, NIH/3T3 cells overexpressing FGFR3 WT-TACC3 fusion protein (Homo sapiens, UniProt P22607); assay: NIH/3T3 FGFR3 WT-TACC3 cell proliferation assay (CellTiter Glo); type: cell-based; settings: 72-hr incubation, top concentration 10 μM, read-out: NIH/3T3 FGFR3 WT-TACC3 CTG (IC50)
T2 construct: NIH/3T3 FGFR3 WT-TACC3 CTG (IC50); other: 72-hr incubation, CellTiter Glo, top concentration 10 μM; fused on or other part: Q9Y6A5 (Transforming acidic coiled-coil-containing protein 3)
T2 sequence (P22607 whole entry, change not shown, the tested form may be a part): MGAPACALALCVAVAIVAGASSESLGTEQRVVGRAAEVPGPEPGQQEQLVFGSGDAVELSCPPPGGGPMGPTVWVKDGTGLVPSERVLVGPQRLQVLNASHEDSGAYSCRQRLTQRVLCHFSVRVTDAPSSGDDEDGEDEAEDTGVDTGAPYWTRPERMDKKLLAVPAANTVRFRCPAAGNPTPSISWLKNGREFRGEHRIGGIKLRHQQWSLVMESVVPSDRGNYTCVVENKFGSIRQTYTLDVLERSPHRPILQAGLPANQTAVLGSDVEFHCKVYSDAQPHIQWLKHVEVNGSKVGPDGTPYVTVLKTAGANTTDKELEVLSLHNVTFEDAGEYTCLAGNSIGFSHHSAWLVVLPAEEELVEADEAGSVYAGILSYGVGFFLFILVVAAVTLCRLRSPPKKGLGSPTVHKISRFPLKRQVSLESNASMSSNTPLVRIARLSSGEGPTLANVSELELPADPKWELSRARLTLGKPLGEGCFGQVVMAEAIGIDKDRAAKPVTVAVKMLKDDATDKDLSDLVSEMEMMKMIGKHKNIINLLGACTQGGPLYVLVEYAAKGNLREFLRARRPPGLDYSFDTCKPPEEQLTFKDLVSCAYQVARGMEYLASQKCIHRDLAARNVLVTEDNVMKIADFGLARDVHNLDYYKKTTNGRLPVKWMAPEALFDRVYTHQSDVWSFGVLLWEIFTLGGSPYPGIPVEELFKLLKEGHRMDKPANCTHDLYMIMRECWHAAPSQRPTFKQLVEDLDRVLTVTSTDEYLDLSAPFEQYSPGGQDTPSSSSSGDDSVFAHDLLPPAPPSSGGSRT
Experimental: NIH/3T3 FGFR3 WT-TACC3 Cell Proliferation Assay
In day 1, 90 μL of cell suspension (NIH/3T3 cells overexpressing FGFR3 WT-TACC3 fusion protein) (total 30,000 cells per well in growth medium (DMEM containing 1% Glutamax, 10% FBS and 1% Pen/Strep)) was seeded in a 96-well plate and then incubated overnight at 37° C. and 5% CO2. […] After 72-hr incubation at 37° C. and 5% CO2, in day 5 a volume of 50 μL CellTiter Glo (CTG) reagent was added into cell-containing 96-well plate and the plate was incubated at room temperature for 10 minutes before RLUs (relative light unit) were measured on a microplate reader with luminescence detection module.

[4] = test system: NIH/3T3 cells transfected with control vector; assay: NIH/3T3 mock cell proliferation assay (counter assay, CellTiter Glo); type: cell-based; settings: 72-hr incubation, top concentration 30 μM, counter assay for general toxicity, read-out: NIH/3T3 MOCK CTG (IC50)
Experimental: NIH/3T3 Mock Cell Proliferation Assay
In day 1, 90 μL of cell suspension (NIH/3T3 cells transfected with the same control vector as in the above two proliferation assays) (total 30,000 cells per well in growth medium (DMEM containing 1% Glutamax, 10% FBS and 1% Pen/Strep)) was seeded in a 96-well plate and then incubated overnight at 37° C. and 5% CO2. In day 2, 10 μL of growth medium containing 10-fold stock solution of testing compound was added into cell cultures (9 dose points with 3× serial dilution, starting with 30 μM, 0.3% DMSO final). After 72-hr incubation at 37° C. and 5% CO2, in day 5 a volume of 50 μL CellTiter Glo (CTG) reagent was added into cell-containing 96-well plate and the plate was incubated at room temperature for 10 minutes before RLUs (relative light unit) were measured on a microplate reader with luminescence detection module.

[5] = target: T3, human FGFR3 V555L enzyme (cytoplasmic domain carrying V555L mutation) (Homo sapiens, UniProt P22607, V555L); assay: FGFR3 V555L mobility shift assay (enzymatic assay); type: biochemical; settings: 40 μM ATP, 50 minutes at 30° C, Caliper EZ reader II
T3 construct: human FGFR3 V555L enzyme (cytoplasmic domain carrying V555L mutation, from Carna Biosciences); purchased Carna Biosciences
T3 sequence (P22607 397-806 V555L limits assumed): as the sequence (P22607 397-806 limits assumed) above, with V159L counted along it
Source text: FGFR3 V555L Mobility Shift Assay (Enzymatic Assay)

SMILES: CC(Nc1c(-c2nc3ccc(N4CCOCC4)cc3[nH]2)c(=O)[nH]c2cn(C)nc12)c1cscn1 (single isomer, unassigned) [Compound 42, (R*)-2-methyl-6-(6-morpholino-1H-benzo[d]imidazol-2-yl)-7-((1-(thiazol-4-yl)ethyl)-amino)-2H-pyrazolo[4,3-b]pyridin-5(4H)-one]
- IC50 [1]: 18.9 nM
- IC50 [2]: 2.73 nM
- GI50 [3]: 8.84 nM
- IC50 [4]: 305 nM

SMILES: CC(Nc1c(-c2nc3ccc(OC4CCOCC4)cc3[nH]2)c(=O)[nH]c2cn(C)nc12)c1cocn1 (single isomer, unassigned) [Compound 36, (S*)-2-methyl-7-((1-(oxazol-4-yl)ethyl)amino)-6-(6-((tetrahydro-2H-pyran-4-yl)oxy)-1H-benzo[d]imidazol-2-yl)-2H-pyrazolo[4,3-b]pyridin-5(4H)-one]
- IC50 [1]: 0.839 nM
- GI50 [3]: 49.6 nM
- IC50 ([4]; Mus musculus, NIH3T3, 72 h): 753 nM

SMILES: COCC(Nc1c(-c2nc3c(F)cc(N4CCOCC4)cc3[nH]2)c(=O)[nH]c2cn(C)nc12)c1ncccn1 (single isomer, unassigned) [Compound 29, (S*)-6-(4-fluoro-6-morpholino-1H-benzo[d]imidazol-2-yl)-7-((2-methoxy-1-(pyrimidin-2-yl)ethyl)amino)-2-methyl-2H-pyrazolo[4,3-b]pyridin-5(4H)-one]
- IC50 [1]: 8.56 nM
- GI50 [3]: 98.3 nM
- IC50 ([4]; Mus musculus, NIH3T3, 72 h): 1530 nM

SMILES: C[C@H](Nc1c(-c2nc3ccc(N4CCCCC4)cc3[nH]2)c(=O)[nH]c2cn(C)nc12)c1ccccn1 [Compound 33, (S)-2-methyl-6-(6-(piperidin-1-yl)-1H-benzo[d]imidazol-2-yl)-7-((1-(pyridin-2-yl)ethyl)-amino)-2H-pyrazolo[4,3-b]pyridin-5(4H)-one]
- IC50 [1]: 17.5 nM
- GI50 [3]: 258 nM
- IC50 ([4]; Mus musculus, NIH3T3, 72 h): 6530 nM

SMILES: CCC(Nc1c(-c2nc3ccc(N4CCOCC4)cc3[nH]2)c(=O)[nH]c2cn(C)nc12)c1ncccn1 (single isomer, unassigned) [Compound 39, (S*)-2-methyl-6-(6-morpholino-1H-benzo[d]imidazol-2-yl)-7-((1-(pyrimidin-2-yl)-propyl)amino)-2H-pyrazolo[4,3-b]pyridin-5(4H)-one]
- IC50 [1]: 0.881 nM
- GI50 [3]: 16.3 nM
- IC50 ([4]; Mus musculus, NIH3T3, 72 h): 458 nM

SMILES: C[C@H](Nc1c(-c2nc3ccc(N4CCOC(F)(F)C4)cc3[nH]2)c(=O)[nH]c2cn(C)nc12)c1ncccn1 [Compound 25, (S)-6-(6-(2,2-difluoromorpholino)-1H-benzo[d]imidazol-2-yl)-2-methyl-7-((1-(pyrimidin-2-yl)ethyl)amino)-2H-pyrazolo[4,3-b]pyridin-5(4H)-one]
- IC50 [1]: 0.495 nM
- GI50 [3]: 22.3 nM
- IC50 ([4]; Mus musculus, NIH3T3, 72 h): 1210 nM

SMILES: CC(Nc1c(-c2nc3ccc(N4CCOCC4)cc3[nH]2)c(=O)[nH]c2cn(C)nc12)c1cscn1 (single isomer, unassigned) [Compound 41, (S*)-2-methyl-6-(6-morpholino-1H-benzo[d]imidazol-2-yl)-7-((1-(thiazol-4-yl)ethyl)-amino)-2H-pyrazolo[4,3-b]pyridin-5(4H)-one]
- IC50 [1]: 23.7 nM
- GI50 [3]: 5.57 nM
- IC50 [5]: 50.8 nM
- IC50 ([4]; Mus musculus, NIH3T3, 72 h): 425 nM

SMILES: CC(Nc1c(-c2nc3ccc(N4CCOCC4)c(F)c3[nH]2)c(=O)[nH]c2cn(C)nc12)c1ncccn1 (single isomer, unassigned) [Compound 14, (S*)-6-(7-fluoro-6-morpholino-1H-benzo[d]imidazol-2-yl)-2-methyl-7-((1-(pyrimidin-2-yl)ethyl)amino)-2H-pyrazolo[4,3-b]pyridin-5(4H)-one]
- IC50 [1]: 1.9 nM
- GI50 [3]: 4.06 nM
- IC50 ([4]; Mus musculus, NIH3T3, 72 h): 424 nM

SMILES: COc1cc(N2CCOCC2)cc2[nH]c(-c3c(NC(C)c4ncccn4)c4nn(C)cc4[nH]c3=O)nc12 (single isomer, unassigned) [Compound 51, (S*)-6-(4-methoxy-6-morpholino-1H-benzo[d]imidazol-2-yl)-2-methyl-7-((1-(pyrimidin-2-yl)ethyl)amino)-2,4-dihydro-5H-pyrazolo[4,3-b]pyridin-5-one]
- IC50 [1]: 0.788 nM
- GI50 [3]: 44.6 nM
- IC50 ([4]; Mus musculus, NIH3T3, 72 h): 1160 nM

SMILES: CCn1cc2[nH]c(=O)c(-c3nc4cnc(N5CCOCC5)cc4[nH]3)c(N[C@@H](C)c3ncccn3)c2n1 [Compound 43, (S)-2-ethyl-6-(6-morpholino-1H-imidazo[4,5-c]pyridin-2-yl)-7-((1-(pyrimidin-2-yl)ethyl)-amino)-2H-pyrazolo[4,3-b]pyridin-5(4H)-one]
- IC50 [1]: 1.04 nM
- GI50 [3]: 12.6 nM
- IC50 ([4]; Mus musculus, NIH3T3, 72 h): 415 nM

SMILES: C[C@H](Nc1c(-c2nc3ccc(N4CCN(C)CC4)cc3[nH]2)c(=O)[nH]c2cn(C)nc12)c1ccccc1 [Compound 18, (S)-2-Methyl-6-(6-(4-methylpiperazin-1-yl)-1H-benzo[d]imidazol-2-yl)-7-((1-phenylethyl)amino)-2H-pyrazolo[4,3-b]pyridin-5(4H)-one]
- IC50 [1]: 2.02 nM
- GI50 [3]: 74.3 nM
- IC50 ([4]; Mus musculus, NIH3T3, 72 h): 680 nM

SMILES: Cc1c(N2CCOCC2)ccc2nc(-c3c(NC(C)c4ncccn4)c4nn(C)cc4[nH]c3=O)[nH]c12 (single isomer, unassigned) [Compound 28, (S*)-2-methyl-6-(7-methyl-6-morpholino-1H-benzo[d]imidazol-2-yl)-7-((1-(pyrimidin-2-yl)ethyl)amino)-2H-pyrazolo[4,3-b]pyridin-5(4H)-one]
- IC50 [1]: 0.939 nM
- GI50 [3]: 10 nM
- IC50 ([4]; Mus musculus, NIH3T3, 72 h): 2070 nM
